From patent US20250213573A1, “PHARMACEUTICAL COMPOSITION COMPRISING JAK INHIBITOR, PREPARATION METHOD THEREFOR AND USE THEREOF” (BEIJING MAXINOVEL PHARMACEUTICALS CO., LTD., priority 2022, published 2025)

Test: Saturation solubility test of the compound of formula I in different solvents
Format: physicochemical
Conditions: thermodynamic from solid
Description: Example 1: Saturation Solubility Test of the Compound of Formula I in Different Solvents

SMILES: CCS(=O)(=O)N1CC(C(CC#N)n2cc(-c3nc(Nc4cnn(C)c4)nc4ccsc34)cn2)C1 (centres unmarked) [Compound of formula I]
- solubility (aqueous buffer, saturation solubility in pH 2 phosphate buffer): 16 µg/mL
- solubility (aqueous buffer, saturation solubility in pH 4 phosphate buffer): 1 µg/mL
- solubility (aqueous buffer, saturation solubility in pH 6 phosphate buffer): 1 µg/mL
- solubility (aqueous buffer, saturation solubility in pH 8 phosphate buffer): 1 µg/mL
- solubility (oil or lipid, saturation solubility in Corn oil): 14 µg/mL
- solubility (oil or lipid, saturation solubility in Medium chain triglycerides): 75 µg/mL
- solubility (oil or lipid, saturation solubility in Oleic acid): 230 µg/mL
- solubility (oil or lipid, saturation solubility in Olive oil): 14 µg/mL
- solubility (oil or lipid, saturation solubility in Soybean oil): 18 µg/mL
- solubility (organic solvent or mixture, saturation solubility in Anhydrous ethanol): 240 µg/mL
- solubility (organic solvent or mixture, saturation solubility in Diethylene glycol monoethyl ether): 14000 µg/mL
- solubility (organic solvent or mixture, saturation solubility in Dimethyl sulfoxide): 302000 µg/mL
- solubility (organic solvent or mixture, saturation solubility in Ethyl acetate): 2340 µg/mL
- solubility (organic solvent or mixture, saturation solubility in Glycerol): 70 µg/mL
- solubility (organic solvent or mixture, saturation solubility in Polyethylene glycol 400): 26600 µg/mL
- solubility (organic solvent or mixture, saturation solubility in Propylene glycol): 990 µg/mL
- solubility (saturation solubility in Pure water): 1 µg/mL
